{"source": "patent US4725621A", "about": "“CL-1957E antibiotic compound and its production” (priority 1986, dated 1988)", "key": {"P388 leukemia": {"tested_on": "P388 leukemia", "assay": "in vivo activity against P388 leukemia in mice", "settings": "Days 1-5, P388 inoculated intraperitoneally Day 0", "protocol": "The in vivo activity of CL-1957E against P388 leukemia in mice was assayed using the protocol established in Cancer Chemotherapy Reports, Vol. 3, Part 3, 1-87 (1972). The results of these tests are presented in Table 7 in terms of %T/C values which are the ratios of mean survival times of treated to control animals, expressed as percentages."}, "[1]": {"tested_on": "L1210 mouse leukemia cells", "assay": "in vitro cytotoxicity against L1210 mouse leukemia cells", "type": "cell-based", "settings": "read-out: ID50 (cytotoxicity)", "protocol": "(§1) The cytotoxicity of CL-1957E against L1210 mouse leukemia cells and against human colon adenocarcinoma (HCT 8) cells was measured in vitro. The ID50 values appear in Table 8."}, "[2]": {"tested_on": "Schizosaccharomyces pombe", "assay": "antimicrobial activity, broth microdilution (yeast extract-peptone-dextrose broth)", "type": "cell-based", "settings": "culture number M1388, read-out: Minimal Inhibitory Concentration (MIC)", "protocol": "(§2) The antimicrobial activity of CL-1957E was evaluated using the broth microdilution method. Serial dilutions of CL-1957E were made in Muellar-Hinton broth for bacteria and in yeast extract-peptone-dextrose broth for the fungi."}, "Rhizopus japonicus": {"tested_on": "Rhizopus japonicus", "assay": "antimicrobial activity, broth microdilution (yeast extract-peptone-dextrose broth)", "type": "cell-based", "settings": "culture number M1557, read-out: Minimal Inhibitory Concentration (MIC)", "protocol": "as §2"}, "Saccharomyces cerevisiae": {"tested_on": "Saccharomyces cerevisiae", "assay": "antimicrobial activity, broth microdilution (yeast extract-peptone-dextrose broth)", "type": "cell-based", "settings": "culture number S288, read-out: Minimal Inhibitory Concentration (MIC)", "protocol": "as §2"}, "Rhodotorula aurantiaca": {"tested_on": "Rhodotorula aurantiaca", "assay": "antimicrobial activity, broth microdilution (yeast extract-peptone-dextrose broth)", "type": "cell-based", "settings": "Buckleyzyma aurantiaca; culture number M1508; read-out: Minimal Inhibitory Concentration (MIC)", "protocol": "as §2"}, "Torulopsis albida": {"tested_on": "Torulopsis albida", "assay": "antimicrobial activity, broth microdilution (yeast extract-peptone-dextrose broth)", "type": "cell-based", "settings": "Naganishia albida; culture number M1390; read-out: Minimal Inhibitory Concentration (MIC)", "protocol": "as §2"}, "Mucor parasiticus": {"tested_on": "Mucor parasiticus", "assay": "antimicrobial activity, broth microdilution (yeast extract-peptone-dextrose broth)", "type": "cell-based", "settings": "culture number M2652, read-out: Minimal Inhibitory Concentration (MIC)", "protocol": "as §2"}, "Branhamella catarrhalis": {"tested_on": "Branhamella catarrhalis", "assay": "antimicrobial activity, broth microdilution (Mueller-Hinton broth)", "type": "cell-based", "settings": "Moraxella catarrhalis; culture number 03596; read-out: Minimal Inhibitory Concentration (MIC)", "protocol": "as §2"}, "Bacillus cereus": {"tested_on": "Bacillus cereus", "assay": "antimicrobial activity, broth microdilution (Mueller-Hinton broth)", "type": "cell-based", "settings": "culture number 04810, read-out: Minimal Inhibitory Concentration (MIC)", "protocol": "as §2"}, "Streptococcus faecalis": {"tested_on": "Streptococcus faecalis", "assay": "antimicrobial activity, broth microdilution (Mueller-Hinton broth)", "type": "cell-based", "settings": "Enterococcus faecalis; culture number 05045; read-out: Minimal Inhibitory Concentration (MIC)", "protocol": "as §2"}, "Streptococcus pyogenes": {"tested_on": "Streptococcus pyogenes", "assay": "antimicrobial activity, broth microdilution (Mueller-Hinton broth)", "type": "cell-based", "settings": "culture number C203, read-out: Minimal Inhibitory Concentration (MIC)", "protocol": "as §2"}, "Staphylococcus aureus": {"tested_on": "Staphylococcus aureus", "assay": "antimicrobial activity, broth microdilution (Mueller-Hinton broth)", "type": "cell-based", "settings": "culture number 02482, read-out: Minimal Inhibitory Concentration (MIC)", "protocol": "as §2"}, "Salmonella typhimurium": {"tested_on": "Salmonella typhimurium", "assay": "antimicrobial activity, broth microdilution (Mueller-Hinton broth)", "type": "cell-based", "settings": "Salmonella enterica, culture number TA1535, read-out: Minimal Inhibitory Concentration (MIC)", "protocol": "as §2"}, "Pseudomonas aeruginosa": {"tested_on": "Pseudomonas aeruginosa", "assay": "antimicrobial activity, broth microdilution (Mueller-Hinton broth)", "type": "cell-based", "settings": "culture number 05111, read-out: Minimal Inhibitory Concentration (MIC)", "protocol": "as §2"}, "Escherichia coli": {"tested_on": "Escherichia coli", "assay": "antimicrobial activity, broth microdilution (Mueller-Hinton broth)", "type": "cell-based", "settings": "culture number 04863, read-out: Minimal Inhibitory Concentration (MIC)", "protocol": "as §2"}, "Micrococcus luteus": {"tested_on": "Micrococcus luteus", "assay": "antimicrobial activity, broth microdilution (Mueller-Hinton broth)", "type": "cell-based", "settings": "culture number 05064, read-out: Minimal Inhibitory Concentration (MIC)", "protocol": "as §2"}, "Bacillus megaterium": {"tested_on": "Bacillus megaterium", "assay": "antimicrobial activity, broth microdilution (Mueller-Hinton broth)", "type": "cell-based", "settings": "Priestia megaterium; culture number 066; read-out: Minimal Inhibitory Concentration (MIC)", "protocol": "as §2"}, "Streptococcus pneumoniae": {"tested_on": "Streptococcus pneumoniae", "assay": "antimicrobial activity, broth microdilution (Mueller-Hinton broth)", "type": "cell-based", "settings": "culture number SV1, read-out: Minimal Inhibitory Concentration (MIC)", "protocol": "as §2"}, "Alcaligenes viscolactis": {"tested_on": "Alcaligenes viscolactis", "assay": "antimicrobial activity, broth microdilution (Mueller-Hinton broth)", "type": "cell-based", "settings": "culture number 21698, read-out: Minimal Inhibitory Concentration (MIC)", "protocol": "as §2"}, "[3]": {"tested_on": "human colon adenocarcinoma (HCT 8) cells", "assay": "in vitro cytotoxicity against human colon adenocarcinoma (HCT 8) cells", "type": "cell-based", "settings": "read-out: ID50 (cytotoxicity)", "protocol": "as §1"}, "solubility in water": {"assay": "solubility in water", "type": "physicochemical", "settings": "lyophilized triethylammonium salt", "protocol": "A cooled solution of triethylamine (2.45 ml, 0.176 mmol) in 7.55 ml of water is added dropwise with stirring to a solution of 100 mg (0.176 mmol) of CL-1957E in 2.5 ml of methanol. The resulting solution is concentrated to a final volume of about 2 ml on a rotary evaporator and then diluted to 40 ml with water. Two-milliliter aliquots of this solution were added to each of several 6-ml vials."}}, "note": "Structures can show the parent of a compound that is named as a salt."}
{"smiles": "CC(/C=C/C1OC(=O)C=CC1C)=C\\C(C)C/C=C/C(C)=C/C(CO)C(=O)C(C)C(O)C(C)C/C(C)=C/C(=O)O", "note": "(stereo not shown) [CL-1957E, 19-(3,6-dihydro-3-methyl-6-oxo-2H-pyran-2-yl)-6-hydroxy-9-(hydroxymethyl)-3,5,7,11,15,17-hexamethyl-8-oxo-2,10,12,16,18-nonadecapentaenoic acid]", "values": [{"measurement": "% T/C (ratio of mean survival times of treated to control animals)", "setting": "P388 leukemia; 25 μg/kg/injection", "result": 130, "unit": "%"}, {"measurement": "% T/C (ratio of mean survival times of treated to control animals)", "setting": "P388 leukemia; 50 μg/kg/injection", "result": 139, "unit": "%"}, {"measurement": "% T/C (ratio of mean survival times of treated to control animals)", "setting": "P388 leukemia; 100 μg/kg/injection", "result": 153, "unit": "%"}, {"measurement": "% T/C (entry in words: toxicity)", "setting": "P388 leukemia; 200 μg/kg/injection", "result": "Toxic"}, {"measurement": "IC50", "setting": "[1]", "result": 0.0034, "unit": "µg/mL"}, {"measurement": "MIC", "setting": "[2]", "result": 12.3, "unit": "µg/mL"}, {"measurement": "MIC", "setting": "Rhizopus japonicus", "result": "> 1000", "unit": "µg/mL"}, {"measurement": "MIC", "setting": "Saccharomyces cerevisiae", "result": "> 1000", "unit": "µg/mL"}, {"measurement": "MIC", "setting": "Rhodotorula aurantiaca", "result": "> 1000", "unit": "µg/mL"}, {"measurement": "MIC", "setting": "Torulopsis albida", "result": "> 1000", "unit": "µg/mL"}, {"measurement": "MIC", "setting": "Mucor parasiticus", "result": "> 1000", "unit": "µg/mL"}, {"measurement": "MIC", "setting": "Branhamella catarrhalis", "result": "≤ 0.46", "unit": "µg/mL"}, {"measurement": "MIC", "setting": "Bacillus cereus", "result": "≤ 0.46", "unit": "µg/mL"}, {"measurement": "MIC", "setting": "Streptococcus faecalis", "result": "≤ 0.46", "unit": "µg/mL"}, {"measurement": "MIC", "setting": "Streptococcus pyogenes", "result": "≤ 0.46", "unit": "µg/mL"}, {"measurement": "MIC", "setting": "Staphylococcus aureus", "result": "≤ 0.46", "unit": "µg/mL"}, {"measurement": "MIC", "setting": "Salmonella typhimurium", "result": "> 1000", "unit": "µg/mL"}, {"measurement": "MIC", "setting": "Pseudomonas aeruginosa", "result": "> 1000", "unit": "µg/mL"}, {"measurement": "MIC", "setting": "Escherichia coli", "result": "> 1000", "unit": "µg/mL"}, {"measurement": "MIC", "setting": "Micrococcus luteus", "result": "≤ 0.46", "unit": "µg/mL"}, {"measurement": "MIC", "setting": "Bacillus megaterium", "result": "≤ 0.46", "unit": "µg/mL"}, {"measurement": "MIC", "setting": "Streptococcus pneumoniae", "result": "≤ 0.46", "unit": "µg/mL"}, {"measurement": "MIC", "setting": "Alcaligenes viscolactis", "result": "≤ 0.46", "unit": "µg/mL"}, {"measurement": "IC50", "setting": "[3]", "result": 0.001, "unit": "µg/mL"}]}
{"smiles": "CC(/C=C/C1OC(=O)C=CC1C)=C\\C(C)C/C=C/C(C)=C/C(CO)C(=O)C(C)C(O)C(C)C/C(C)=C/C(=O)O", "note": "(stereo not shown) [CL-1957E triethylammonium salt]", "values": [{"measurement": "solubility in water", "setting": "solubility in water", "result": "soluble in water"}]}
